Consider 14 molecules from article PMC12686966, “Da‐Bu‐Yin‐Wan and Qian‐Zheng‐San Alleviate Parkinson's Disease by Activating the Keap1/Nrf2/HO‐1 Pathway to Positively Regulate Oxidative Stress” (CNS Neuroscience & Therapeutics, 2025).

In one data set the test system is Nrf2/HO-1 pathway. The arrangement: method as in PMID 27535021. Particulars: hydrogen peroxide-induced oxidative stress ref 37; cited from earlier work.
A further data set deals with Nrf2/GPX4 pathway. Set-up: method as in PMID 39631720, PMID 27632381. Particulars: PD models ref 40, 41; cited from earlier work.
For data set [1] the following is noted: mouse, in vivo, po.
Procedure: (§1) 6‐week‐old male C57BL/6J mice (20 ± 2 g; n = 6 per group) were orally administered the herbal decoction (BYQZF) at a dose of 5 g crude drug/kg. The administration volume was 10 mL/kg, and the concentration of the drug solution was 0.5 g/mL. Plasma samples were collected on day 14 after 14 consecutive days of drug administration. […] The supernatant samples were collected after centrifugation (5000 rpm, 10 min) and stored at −80°C immediately until analysis.
(§2) Each 100 μL plasma aliquot obtained at predetermined intervals was supplemented with 5 μL of internal standard solution (IS, 1 μg/mL) and 10 μL enzymatic hydrolysis cocktail (β‐glucuronidase/sulfatase mixture: 200 U/2 U enzymatic activity). The mixture underwent vortex mixing followed by 1‐h enzymatic digestion at physiological temperature (37°C). Subsequent protein precipitation was achieved through methanol addition (300 μL) with vigorous shaking. After phase separation by centrifugation (5000 rpm, 5 min), the organic supernatant was carefully decanted and subjected to nitrogen‐stream evaporation until completely dry. The residue was then reconstituted in 100 μL of mobile phase consisting of aqueous 0.1% FA‐ACN (v:v = 95:5) using ultrasonic‐assisted dissolution. Prior to UPLC‐MS/MS analysis, the final solution underwent high‐speed clarification centrifugation (13,000 rpm, 10 min) to remove particulate matter. The drug concentration‐time profiles were constructed, and pharmacokinetic parameters were analyzed using DAS 3.2.8 software.
Data set [2] can be described thus: Pharmacokinetic study of 10 major BYQZF components in plasma (UPLC-MS/MS). The conditions noted are these: for MRT last: MRT(0-t); for pharmacokinetics in MPTP + BYQZF group compared with BYQZF without MPTP group: p < 0.05.
Procedure: as §1, §2
Details of data set [3]: method as in PMID 28163115. The conditions noted are these: cited from earlier work.
Another data set has as its system SH-SY5Y cells. The experiment in a line: Annexin V-PE apoptosis detection (flow cytometry) in MPP+-treated SH-SY5Y cells. The data set is classed as cell-based, human. Particulars: Control siRNA; 1 mM MPP+ alone or followed by 4 μg/mL BYQZF 48 h; control cells 1.65%. As to the method:
The experiment used the human neuroblastoma SH‐SY5Y cell line to construct a stable transfected cell line. Cells were grown in a 1:1 MEM/F12 medium blend with added 15% fetal bovine serum for nutritional support. To avoid bacterial contamination, 500 IU/mL of penicillin and 500 μg/mL of streptomycin were incorporated. Cells were cultured at 37°C with 5% CO2 to maintain a pH of 7.2–7.4. The cell passage ratio was 1:2 to 1:4, and medium was replaced every 48–72 h to maintain the cells in the logarithmic growth phase. Routine testing confirmed that the cells were free from mycoplasma, bacterial, and fungal contamination. For cell freezing, a cryopreservation solution consisting of 60% base medium, 30% FBS, and 10% DMSO was used, and cells were stored in liquid nitrogen for long‐term preservation. The human Nrf2 knockdown plasmid, crafted by GeneChem, was used to transfect SH‐SY5Y cells seeded at a concentration of 100,000 cells per milliliter, utilizing the optimal amount of Lipofectamine 3000 (Invitrogen) in accordance with the protocol. 48 h subsequent to transfection, cells were exposed to 1 mM MPP^+ in the culture environment, and subsequently treated with 4 μg/mL BYQZF for another 48 h.
(Flow cytometry measures light scatter and fluorescence of single cells or particles in a stream.)

The mark [4] stands for this setting: male, C57BL/6J, mouse, plasma, po, 5 g/kg, AUC(0-t), plasma, oral BYQZF 5 g crude drug/kg, group BYQZF (without MPTP), n=6.
[5] abbreviates: male, C57BL/6J, mouse, plasma, po, 5 g/kg, AUC(0-t), plasma, oral BYQZF 5 g crude drug/kg, group MPTP+BYQZF (PD model mice), n=6.
The mark [6] stands for this setting: male, C57BL/6J, mouse, plasma, po, 5 g/kg, plasma, oral BYQZF 5 g crude drug/kg, group BYQZF (without MPTP), n=6.
Setting [7] is: male, C57BL/6J, mouse, plasma, po, 5 g/kg, plasma, oral BYQZF 5 g crude drug/kg, group MPTP+BYQZF (PD model mice), n=6.
Where [8] appears, read: male, C57BL/6J, mouse, plasma, po, 5 g/kg, Cmax, plasma, oral BYQZF 5 g crude drug/kg, group BYQZF (without MPTP), n=6.
Setting [9] is: male, C57BL/6J, mouse, plasma, po, 5 g/kg, Cmax, plasma, oral BYQZF 5 g crude drug/kg, group MPTP+BYQZF (PD model mice), n=6.
Where [10] appears, read: plasma, oral BYQZF 5 g crude drug/kg, group BYQZF (without MPTP), n=6.
[11] abbreviates: plasma, oral BYQZF 5 g crude drug/kg, group MPTP+BYQZF (PD model mice), n=6.

Structures can show the parent of a compound that is named as a salt. Where two headings read alike, the source gives them in different places.

For `COc1ccc2cc3[n+](cc2c1OC)CCc1cc2c(cc1-3)OCO2` [Berberine hydrochloride], the Nrf2/HO-1 pathway result with Nrf2/HO-1 pathway is recorded as “can activate”.

For the molecule `C[C@@H]1O[C@@H](O[C@@H]2[C@@H](O)[C@H](OCCc3ccc(O)c(O)c3)O[C@H](CO)[C@H]2OC(=O)/C=C/c2ccc(O)c(O)c2)[C@H](O)[C@H](O)[C@H]1O` [Acteoside], the Nrf2/GPX4 pathway entry with Nrf2/GPX4 pathway is on record as “activate”.

With `C[C@H]1[C@H]2[C@H](O[C@@H]3O[C@H](CO)[C@@H](O)[C@H](O)[C@H]3O)OC=C(C(=O)O)[C@H]2C[C@@H]1O` [8-Epiloganic acid], in data set [1], the “pharmacokinetics in MPTP + BYQZF group compared with BYQZF without MPTP group” value was “significantly different”.

Regarding `N[C@@H](CCC(=O)O)C(=O)O` [L-Glutamic acid], the Cmax in data set [2] (male, C57BL/6J, mouse, in vivo, po, 5 g/kg) is 0.0514 ± 0.00766 ng/mL; in data set [2] (male, C57BL/6J, mouse, plasma, po, 5 g/kg) it was 0.0146 ± 0.00047 ng/mL. For the same molecule, the exposure AUC(0-t) in data set [2] (setting [4]) is 0.102 ± 0.0119 ng·h/mL; in data set [2] (setting [5]), 0.0832 ± 0.0112 ng·h/mL. Besides, the MRT last in data set [2] (setting [6]) came out at 4.47 ± 1.61 h; in data set [2] (setting [7]), 4.55 ± 1.19 h.

Regarding `C[C@@H]1O[C@@H](O[C@@H]2[C@@H](O)[C@H](OCCc3ccc(O)c(O)c3)O[C@H](COC(=O)/C=C/c3ccc(O)c(O)c3)[C@H]2O)[C@H](O)[C@H](O)[C@H]1O` [Isoacteoside], the AUC(0-t) in data set [2] (setting [4]) stood at 2.8 ± 0.138 ng·h/mL; in data set [2] (setting [5]), 2.18 ± 0.31 ng·h/mL. Further, the Cmax in data set [2] (setting [8]) was determined as 0.248 ± 0.0148 ng/mL; in data set [2] (setting [9]), 0.185 ± 0.00514 ng/mL. For the same molecule, the MRT last is 7.9 ± 0.47 h in data set [2] (setting [6]) and 8.87 ± 0.83 h in data set [2] (setting [7]). Also, the “pharmacokinetics in MPTP + BYQZF group compared with BYQZF without MPTP group” value in data set [2] (oral BYQZF 5 g crude drug/kg) is “significantly different”.

In the case of `O=c1c(O[C@@H]2O[C@H](CO)[C@H](O)[C@H](O)[C@H]2O)c(-c2ccc(O)c(O)c2)oc2cc(O)cc(O)c12` [Hyperin], the “pharmacokinetics in MPTP + BYQZF group compared with BYQZF without MPTP group” value in data set [2] (oral BYQZF 5 g crude drug/kg) is “significantly different”. In addition, in data set [2] (setting [10]), the “AUC(0-t)” value stood at 0.24678 ± 0.01186 ng·h/mL, the Cmax stood at 0.03885 ± 0.01016 ng/mL and the “MRT(0-t)” value stood at 10.94 ± 0.64 h. Further, in data set [2] (setting [11]), the “AUC(0-t)” value came to 0.17287 ± 0.02918 ng·h/mL, the Cmax worked out at 0.01989 ± 0.00355 ng/mL and the “MRT(0-t)” value was found to be 12.22 ± 2.29 h.

For `O[C@H]1[C@H](O)[C@@H](O)[C@H](O)[C@@H](O)[C@H]1O` [Inositol], the results for the AUC(0-t) in data set [2] (setting [4]) and in data set [2] (setting [5]) were 0.32 ± 0.0658 ng·h/mL and 0.0615 ± 0.0127 ng·h/mL, respectively. Moreover, the results for the Cmax in data set [2] (setting [8]) and in data set [2] (setting [9]) were 0.0582 ± 0.0147 ng/mL and 0.0239 ± 0.00194 ng/mL, respectively. The mean residence time MRT last in data set [2] (setting [6]) came to 2.81 ± 0.27 h; in data set [2] (setting [7]), 11.2 ± 1.23 h.

`O=c1c(O)c(-c2ccccc2)oc2ccccc12` [3-Hydroxyflavone]: the figures for the AUC(0-t) in data set [2] (setting [4]) and in data set [2] (setting [5]) were 0.401 ± 0.0765 ng·h/mL and 0.341 ± 0.0517 ng·h/mL, respectively. Also, the results for the Cmax in data set [2] (setting [8]) and in data set [2] (setting [9]) were 0.105 ± 0.0146 ng/mL and 0.0291 ± 0.00788 ng/mL, respectively. In addition, the values for the mean residence time MRT last in data set [2] (setting [6]) and in data set [2] (setting [7]) were 5.17 ± 3.67 h and 13 ± 1.72 h, respectively. In data set [2] (oral BYQZF 5 g crude drug/kg), the “pharmacokinetics in MPTP + BYQZF group compared with BYQZF without MPTP group” value is “significantly different”.

In the case of `O=c1c2cc(O)c(O)cc2oc2cc(O)c([C@@H]3O[C@H](CO)[C@@H](O)[C@H](O)[C@H]3O)c(O)c12` [Mangiferol], in data set [1], the “pharmacokinetics in MPTP + BYQZF group compared with BYQZF without MPTP group” value was “significantly different”.

As to `N[C@@H](CC(=O)N[C@@H](CC(=O)O)C(=O)O)C(=O)O` [L-beta-aspartyl-L-aspartic acid], the “pharmacokinetics in MPTP + BYQZF group compared with BYQZF without MPTP group” value in data set [2] (oral BYQZF 5 g crude drug/kg) is given as “significantly different”. Moreover, in data set [2] (setting [10]), the area under the curve AUC(0-t) came out at 0.01864 ± 0.00096 ng·h/mL, the Cmax came to 0.02274 ± 0.00024 ng/mL and the “MRT(0-t)” value was found to be 2.02 ± 2.07 h. Besides, in data set [2] (setting [11]), the “AUC(0-t)” value was found to be 0.01424 ± 0.0026 ng·h/mL, the Cmax is 0.00887 ± 0.00191 ng/mL and the “MRT(0-t)” value stood at 2.13 ± 1.32 h.

In the case of `OCC1=C[C@@H](O)[C@]2(O[C@@H]3O[C@H](CO)[C@@H](O)[C@H](O)[C@H]3O[C@@H]3O[C@H](CO)[C@@H](O)[C@H](O)[C@H]3O)C=CO[C@@H](O[C@@H]3O[C@H](CO)[C@@H](O)[C@H](O)[C@H]3O)[C@H]12` [Rehmannioside D], the “spontaneous oxidation of endogenous dopamine” value in data set [3] is given as “inhibit”.

In the case of `O=c1cc[nH]c(=O)[nH]1` [Uracil], the AUC(0-t) in data set [2] (setting [4]) is 0.413 ± 0.0753 ng·h/mL; in data set [2] (setting [5]), 0.166 ± 0.0638 ng·h/mL. Also, the figures for the Cmax in data set [2] (setting [8]) and in data set [2] (setting [9]) were 0.23 ± 0.0219 ng/mL and 0.0395 ± 0.00762 ng/mL, respectively. The MRT last stood at 2.01 ± 1.68 h in data set [2] (setting [6]) and 2.89 ± 0.17 h in data set [2] (setting [7]).

With `C[n+]1ccc(-c2ccccc2)cc1` [MPP^+, 1‐Methyl‐4‐phenylpyridinium], the “proportion of apoptotic cells” value in the data set with SH-SY5Y cells turned out to be 7.95%.

As for Manninotriose, in data set [1], the “pharmacokinetics in MPTP + BYQZF group compared with BYQZF without MPTP group” value is “significantly different”.

For orientation: Cmax means the highest concentration seen after dosing. By AUC(0-t) is commonly meant the area under the concentration-time curve up to a stated or last time point. A lower AUC(0-t) goes with less exposure. Usually MRT last stands for a mean duration of stay, worked out from the concentration-time curve.
